Series [1] concerns Mouse cortical cell cultures. As to the kind of experiment: FeCl2-induced free radical neurotoxicity in mixed cortical cell cultures (LDH assay). The series is classed as cell-based. The settings on record: continuous 50 μM FeCl2, LDH 24 hr later; for neuroprotective effect compared with trolox against FeCl2-induced free radical neurotoxicity: 1-30 μM. On the procedure: (§1) Mouse cortical cell cultures (DIV 12-14) were exposed to continuously to 50 μM Fe^2+, alone or with inclusion of 0.1-100 μM 2-Hydroxy-TTBA (●) or trolox (◯), a membrane-permeable form of vitamin E). Neuronal death was analyzed 24 hr later by measuring levels of LDH released into the bathing medium, mean ±SEM (n=9-12 culture wells per condition), scaled to mean LDH efflux value 24 hr after sham wash (=0) and continuous exposure to 500 μM NMDA (=100). *, Significant difference from the vehicle control, p<0.05 using ANOVA and Student-Neuman-Keuls' test.
as §1, with “alone (♦)” for “alone”, “1-30” for “0.1-100”, “2-Hydroxy-TTS (●), 2-Hydroxy-TTA (◯), 2-Chloro-TTP (▾), 2-Ethan-TTBA (∇), 2-Propan-TTBA (▪),” for “2-Hydroxy-TTBA (●)”, “2-Cyclohexan-TTBA (□).” for “trolox (◯), a membrane-permeable form of vitamin E).”
(§2) For mixed neuron-glia culture, mouse cerebral cortices were removed from brains of the 14-16 day-old-fetal mice (E14-16), gently triturated and plated on 24 well plates (2×10^5 cells/plate) precoated with 100 μg/ml poly-D-lysine and 4 μg/ml laminine. Cultures were maintained at 37° C. in a humidified 5% CO2 atmosphere. Plating media consist of Eagles minimal essential media (MEM, Earles salts, supplied glutamine-free) supplemented with 5% horse serum, 5% fetal bovine serum, 26.5 mM bicarbonate, 2 mM glutamine, and 21 mM glucose.
(§3) After 7-8 days in vitro (DIV 7-8), 10 μM cytosine arabinofuranoside (Ara-C) was included to halt overgrowth of glia. The drug treatment was carried on DIV 12-15 cortical cell culture. Overall neuronal cell injury was assessed by measuring amount of lactate dehydrogenase (LDH) released into the bathing medium 24 hr after neurotoxic insults as previously described [Koh and Choi, J Neurosci Methods 20:83-90, 1987].
Mixed cortical cell cultures (DIV 13-15) were continuously exposed to 50 μM FeCl2, which produces hydroxyl radical via a Fenton reaction, alone or with inclusion of 2-Hydroxy-TTBA, 2-Hydroxy-TTA, 2-Hydroxy-TTS, 2-Chloro-TTP, 2-Ethan-TTBA, 2-Propan-TTBA, 2-Cyclohexan-TTBA or trolox (a vitamin E analogue) at indicated doses. Neuronal cell death was analyzed 24 hr later by LDH assay as described above. *, Significant difference from the vehicle control (FeCl2), p<0.05 using ANOVA and Student-Neuman-Keuls' test.

Series [2] deals with Mouse cortical cell cultures. As to the kind of experiment: SNP (sodium nitroprusside) cytotoxicity in mixed cortical cell cultures (LDH assay). The series is classed as cell-based. The settings on record: continuous 5 μM SNP; LDH 24 hr later. As for the experimental part:
Mouse cortical cell cultures (DIV 12-14) were exposed to continuously 5 μM sodium nitroprusside (SNP), alone (●) or with inclusion of 0.1-10 mM aspirin (◯), 1-100 μM trolox (▾), or 0.1-10 μM 2-Hydroxy-TTBA (∇). Neuronal death was analyzed 24 hr later by measuring levels of LDH released into the bathing medium, mean ±SEM (n=9-12 culture wells per condition), scaled to mean LDH efflux value 24 hr after sham wash (=0) and continuous exposure to 500 μM NMDA (=100). *, Significant difference from the vehicle control, p<0.05 using ANOVA and Student-Neuman-Keuls' test.
as §2, §3
Mixed cortical cell cultures were continuously exposed to 5 μM SNP, a nitric oxide (NO) donor, alone or with inclusion of 0.1-10 μM 2-Hydroxy-TTBA, 1-10 μM trolox or 100-10,000 μM aspirin. Neuronal cell death was analyzed 24 hr later by LDH assay. *, Significant difference from the vehicle control (SNP), p<0.05 using ANOVA and Student-Neuman-Keuls' test.

For the compound `Oc1ccc(NCc2c(F)c(F)c(C(F)(F)F)c(F)c2F)cc1Cl` [2-Chloro-TTP, 2-chloro-4-(2,3,5,6-tetrafluoro-4-trifluoromethylbenzylamino)phenol], the “neuroprotective effect compared with trolox against FeCl2-induced free radical neurotoxicity” value in series [1] is “much stronger neuroprotective effects than trolox”. Still for that read-out and setting: the entry for `O=C(O)c1cc(NCc2c(F)c(F)c(C(F)(F)F)c(F)c2F)ccc1OC(=O)C1CCCCC1` [2-Cyclohexan-TTBA, 2-cyclohexanecarbonyloxy-5-(2,3,5,6-tetrafluoro-4-trifluoromethylbenzylamino)benzoic acid] is “much stronger neuroprotective effects than trolox”. Same read-out and setting: the entry for `CC(=O)Oc1ccc(NCc2c(F)c(F)c(C(F)(F)F)c(F)c2F)cc1C(=O)O` [2-Ethan-TTBA, 2-ethanoyloxy-5-(2,3,5,6-tetrafluoro-4-trifluoromethylbenzylamino)benzoic acid] is “much stronger neuroprotective effects than trolox”. Same read-out and setting: the result for `NC(=O)c1cc(NCc2c(F)c(F)c(C(F)(F)F)c(F)c2F)ccc1O` [2-Hydroxy-TTA, 2-hydroxy-5-(2,3,5,6-tetrafluoro-4-trifluoromethylbenzylamino)benzamide] reads “much stronger neuroprotective effects than trolox”; that for `O=S(=O)(O)c1cc(NCc2c(F)c(F)c(C(F)(F)F)c(F)c2F)ccc1O` [2-Hydroxy-TTS, 2-hydroxy-5-(2,3,5,6-tetrafluoro-4-trifluoromethylbenzylamino)benzene sulfonic acid], “much stronger neuroprotective effects than trolox”. Consider `CCC(=O)Oc1ccc(NCc2c(F)c(F)c(C(F)(F)F)c(F)c2F)cc1C(=O)O` [2-Propan-TTBA, 2-propanoyloxy-5-(2,3,5,6-tetrafluoro-4-trifluoromethylbenzylamino)benzoic acid], for which, in series [1], the “neuroprotective effect compared with trolox against FeCl2-induced free radical neurotoxicity” value is given as “much stronger neuroprotective effects than trolox”. On to `CC(=O)Oc1ccccc1C(=O)O` [Aspirin, aspirin, reference compound], for which the “effect on SNP toxicity” value in series [2] is on record as “did not reduce SNP cytotoxicity”.

A word on the melting point: it is the temperature of the solid-liquid transition. As for `O=C(O)c1cc(NCc2c(F)c(F)c(C(F)(F)F)c(F)c2F)ccc1[N+](=O)[O-]` [Synthesis Example 2, 2-nitro-5-(2,3,5,6-tetrafluoro-4-trifluoromethylbenzylamino)benzoic acid], the melting point was determined as 121 °C. `O=C(O)c1cc(NCc2c(F)c(F)c(C(F)(F)F)c(F)c2F)ccc1Cl` [Synthesis Example 3, 2-chloro-5-(2,3,5,6-tetrafluoro-4-trifluoromethylbenzylamino)benzoic acid] yielded a melting point of 58 °C.

`O=C(O)c1cc(NCc2c(F)c(F)c(C(F)(F)F)c(F)c2F)ccc1Br` [Synthesis Example 4, 2-bromo-5-(2,3,5,6-tetrafluoro-4-trifluoromethylbenzylamino)benzoic acid] had a melting point of 70 °C.

As for `Cc1c(F)c(F)c(CNc2ccc(O)c(C(=O)O)c2)c(F)c1F` [Synthesis Example 5, 2-hydroxy-5-(2,3,5,6-tetrafluoro-4-methylbenzylamino)benzoic acid], the melting point is 212 °C.

`Cc1ccc(NCc2c(F)c(F)c(C(F)(F)F)c(F)c2F)cc1C(=O)O` [Synthesis Example 6, 2-methyl-5-(2,3,5,6-tetrafluoro-4-trifluoromethylbenzylamino)benzoic acid]: the melting point was 84 °C. Same read-out and setting: the result for `COc1ccc(NCc2c(F)c(F)c(C(F)(F)F)c(F)c2F)cc1C(=O)O` [Synthesis Example 7, 2-methoxy-5-(2,3,5,6-tetrafluoro-4-trifluoromethylbenzylamino)benzoic acid] reads 94 °C; that for `O=C(O)c1cc(NCc2c(F)c(F)c(C(F)(F)F)c(F)c2F)ccc1OC(F)(F)F` [Synthesis Example 8, 5-(2,3,5,6-tetrafluoro-4-trifluoromethylbenzylamino)-2-trifluoromethoxybenzoic acid], 38 °C. In turn, `O=[N+]([O-])c1cc(NCc2c(F)c(F)c(C(F)(F)F)c(F)c2F)ccc1O` [Synthesis Example 9, 2-nitro-4-(2,3,5,6-tetrafluoro-4-trifluoromethylbenzylamino)phenol] yielded a melting point of 126 to 128 °C. Turning to `COC(=O)c1cc(NCc2c(F)c(F)c(C(F)(F)F)c(F)c2F)ccc1O` [Synthesis Example 13, methyl 2-hydroxy-5-(2,3,5,6-tetrafluoro-4-trifluoromethylbenzylamino)benzoate], the melting point is 127 °C.

As for `Cc1c(C)c2c(c(C)c1O)CCC(C)(C(=O)O)O2` (stereo not drawn) [trolox, reference compound], the “prevention of FeCl2-induced free radical neurotoxicity” value in series [1] is reported as “prevented FeCl2-induced free radical neurotoxicity in a dose-dependent manner”. Also, in series [2], the “effect on SNP toxicity” value is “completely blocked”.

The values above are taken from US7511074B2, “Tetrafluorobenzyl derivatives and pharmaceutical composition for preventing and treating acute and chronic neurodegenerative diseases in central nervous system containing the same” (AmKor Pharma, Inc., priority 2002, dated 2009).
